{"source": "patent US5054434A", "about": "“Suppression of ammonia odors from animal wastes” (W. R. Grace & Co.-Conn., priority 1989, dated 1991)", "key": {"jack bean urease": {"molecular_target": "jack bean urease (Canavalia ensiformis, UniProt P07374)", "sequence (P07374 whole entry, looked up)": "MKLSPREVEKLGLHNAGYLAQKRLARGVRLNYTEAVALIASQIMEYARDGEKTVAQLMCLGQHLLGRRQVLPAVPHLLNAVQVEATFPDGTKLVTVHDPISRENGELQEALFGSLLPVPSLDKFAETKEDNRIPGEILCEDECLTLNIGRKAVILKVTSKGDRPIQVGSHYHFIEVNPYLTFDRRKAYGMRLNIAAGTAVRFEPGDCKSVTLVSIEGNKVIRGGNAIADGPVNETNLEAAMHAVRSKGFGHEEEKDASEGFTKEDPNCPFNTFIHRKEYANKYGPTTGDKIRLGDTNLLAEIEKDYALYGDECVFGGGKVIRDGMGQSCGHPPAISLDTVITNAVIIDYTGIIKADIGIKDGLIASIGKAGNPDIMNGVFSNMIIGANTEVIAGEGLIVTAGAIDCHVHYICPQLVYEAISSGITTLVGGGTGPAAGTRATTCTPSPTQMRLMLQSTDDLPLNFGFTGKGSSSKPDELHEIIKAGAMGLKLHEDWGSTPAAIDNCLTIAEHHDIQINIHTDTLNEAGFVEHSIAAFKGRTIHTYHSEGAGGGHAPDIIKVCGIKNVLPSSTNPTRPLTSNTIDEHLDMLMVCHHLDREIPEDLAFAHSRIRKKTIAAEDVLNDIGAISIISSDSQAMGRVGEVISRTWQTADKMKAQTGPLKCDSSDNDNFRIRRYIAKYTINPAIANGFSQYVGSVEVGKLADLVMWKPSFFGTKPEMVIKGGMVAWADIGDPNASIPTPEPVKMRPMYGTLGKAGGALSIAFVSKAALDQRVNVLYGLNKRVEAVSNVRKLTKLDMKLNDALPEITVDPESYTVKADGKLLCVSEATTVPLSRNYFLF", "test": "Ammonia accumulation from synthetic urine with urease on treated bedding", "type": "biochemical", "details": "for ammonia smell in capped bottle: 12 mg acid, 15 g synthetic urine with 200 units urease, 37.5° C., after 4 hr; for control of accumulation of ammonia: procedure of Example 1", "procedure": "To test the effectiveness of the acid the following procedure has been used. A synthetic urine is made by combining 2.3 wt % urea and 1.1 wt % sodium chloride. To mimic the presence of bacteria, 200 units of jack bean urease is added to the synthetic urine. Jack bean urease is a readily available form of urease which is suitable for use in this context because useases from most natural sources appear to act similarly. See \"Jack Bean Urease (EC 3.5.1.5).8. […] Chem. Soc. 1986, 108, 7124-7125.\nThis urine is then poured over a sample of bedding or other absorbent material to which the acid has been applied. The treated sample is covered so that any gases produced may accumulate. The presence of ammonia is tested for by using Draeger tubes.\nTwo 8 oz. polyethylene bottles were charged with 15 g of rice hulls and 15 g of sawdust, respectively. […] The bottles were capped, and incubated in a shaker bath at 37.5° C. […] By contrast, identical bottles not containing citric acid smelled strongly of ammonia."}, "[1]": {"details": "smell of the acid itself; cited from earlier work"}, "Bacillus pasteurii": {"tested_on": "Bacillus pasteurii", "test": "Ammonia accumulation from synthetic urine on rice hulls with live urease-producing bacteria", "details": "24 mg acid, 6 g rice hulls, 24 g synthetic urine, 37.5° C., after one day"}, "rabbit": {"tested_on": "rabbit", "details": "cited from earlier work"}, "[2]": {"details": "cited from earlier work"}, "urease": {"tested_on": "urease", "details": "literature statement (Mobley and Hausinger 1989); cited from earlier work"}}, "note": "Structures can show the parent of a compound that is named as a salt.", "data": [{"compound": "O=C(O)CC(O)(CC(=O)O)C(=O)O", "note": "[Citric, citric acid]", "values": [{"measurement": "ammonia smell in capped bottle", "setting": "jack bean urease; 15 g rice hulls", "result": "no ammonia smell could be detected"}, {"measurement": "ammonia smell in capped bottle", "setting": "jack bean urease; 15 g sawdust", "result": "no ammonia smell could be detected"}, {"measurement": "Smell", "setting": "[1]", "result": "None"}, {"measurement": "ammonia in bottle measured using a Draeger tube", "setting": "Bacillus pasteurii", "result": "less than 5 ppm"}]}, {"compound": "O=C(O)/C=C/C(=O)O", "note": "[Fumaric, fumaric acid]", "values": [{"measurement": "control of accumulation of ammonia", "setting": "jack bean urease; 6 mg", "result": "sufficient to prevent the accumulation of noticeable amounts of ammonia"}]}, {"compound": "O=C(O)CC(O)C(=O)O", "note": "(stereo not drawn) [Malic, malic acid]", "values": [{"measurement": "control of accumulation of ammonia", "setting": "jack bean urease; 12 mg", "result": "sufficient to prevent the accumulation of noticeable amounts of ammonia"}, {"measurement": "Smell", "setting": "[1]", "result": "None"}, {"measurement": "Oral LD50", "setting": "rabbit", "result": "5,000 mg/kg"}]}, {"compound": "O=C(O)CC(=O)O", "note": "[Malonic, malonic]", "values": [{"measurement": "Smell", "setting": "[1]", "result": "None"}]}, {"compound": "C/C=C/C=C/C(=O)O", "note": "[Sorbic, sorbic]", "values": [{"measurement": "First pKa", "setting": "[2]", "result": 4.8}, {"measurement": "Smell", "setting": "[1]", "result": "None"}]}, {"compound": "O=C(O)CCC(=O)O", "note": "[Succinic, succinic]", "values": [{"measurement": "Smell", "setting": "[1]", "result": "None"}]}, {"compound": "CC(=O)O", "note": "[acetic acid, reference compound]", "values": [{"measurement": "Smell", "setting": "[1]", "result": "strong and unpleasant smell"}]}, {"compound": "OB(O)O", "note": "[boric acid, reference compound]", "values": [{"measurement": "control of accumulation of ammonia", "setting": "jack bean urease; 36 mg", "result": "not control the accumulation of ammonia"}, {"measurement": "First pKa", "setting": "[2]", "result": 9.1}]}, {"compound": "O=C(O)CC(O)(CC(=O)O)C(=O)O", "note": "[sodium citrate, reference compound]", "values": [{"measurement": "control of accumulation of ammonia", "setting": "jack bean urease; 24 mg", "result": "not to control the accumulation of ammonia"}]}, {"compound": "phosphoric acid", "values": [{"measurement": "control of accumulation of ammonia", "setting": "jack bean urease; 6 mg", "result": "sufficient to prevent the accumulation of noticeable amounts of ammonia"}, {"measurement": "inhibition of urease", "setting": "urease", "result": "inhibitor of urease"}]}]}
